molecular target: T1, ChREBP (ChREBPα) (Mus musculus, UniProt Q99MZ3); experiment: isothermal titration calorimetry, purified refolded GSM domain, […] °C; format: binding; settings: not given
T1 sequence (Q99MZ3 43-307): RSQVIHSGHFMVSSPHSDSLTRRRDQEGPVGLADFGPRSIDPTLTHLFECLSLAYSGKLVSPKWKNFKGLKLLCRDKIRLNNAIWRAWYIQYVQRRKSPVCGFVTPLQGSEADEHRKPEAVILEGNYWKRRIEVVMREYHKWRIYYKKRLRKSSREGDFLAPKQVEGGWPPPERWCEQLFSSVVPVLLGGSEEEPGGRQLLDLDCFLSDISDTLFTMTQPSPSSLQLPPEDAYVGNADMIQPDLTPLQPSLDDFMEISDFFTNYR

Row | Compound | Kd [µM]
1 | O=C(CO)COP(=O)(O)O [DHAP, dihydroxyacetone phosphate] | 453

same assay, conditions: read-out: Kd ± SD

Row | Compound | Kd [µM]
2 | O=P(O)(O)OC[C@H]1OC(O)(COP(=O)(O)O)[C@@H](O)[C@@H]1O (stereo partly shown) [F1,6BP, fructose-1,6-bisphosphate] | 250
3 | O=C(CO)[C@@H](O)[C@H](O)[C@H](O)COP(=O)(O)O [F6P] | 131
4 | O=CC(O)COP(=O)(O)O (stereo not shown) [GA3P, glyceraldehyde-3-phosphate] | 221
5 | OC[C@H]1OC(O)[C@H](O)[C@@H](O)[C@@H]1O (stereo partly shown) [Glc, glucose] | 270

Continued, values first:

Row | Kd [µM] | Compound
6 | 64.3 | O=P(O)(O)OC[C@H]1OC(O)[C@H](O)[C@@H](O)[C@@H]1O (stereo partly shown) [G6P, glucose-6-phosphate]
7 | 17 | O=P(O)(O)OCC(O)CO (stereo not shown) [G3P, glycerol-3-phosphate]
